This assay relates to SK-N-SH human neuroblastoma cells. The experiment in a line: Serum Deprivation/JC-1 Mitochondrial Membrane Potential (MMP) Assay. The class given is cell-based. Conditions: Homo sapiens, SK-N-SH; for EC50: 18 h, serum deprivation ~18 hours, JC-1 ratio normalized to peak value for 10 μM dimebolin, single curve fit to mean data of n=2-3; for Emax: percent maximal intensity in JC-1 ratio normalized to peak value for 10 μM dimebolin, serum deprivation, read-out: JC-1 max %. An excerpt: The method also involves a high-throughput assay using serum-deprivation conditions involving neuronal cells to screen for compounds that increase or preserve mitochondrial membrane potential. Such compounds can be found to aid in rescuing cells from energy-depletion that occurs in several neurodegenerative states. Mitochondrial-mediated apoptosis occurs in response to a wide range of apoptotic stimuli including p^53, c-myc, DNA damage, prooxidants, chemotherapeutic agents, serum starvation and death receptor activation (Lin C—H., Lu Y-Z., Cheng, F-C., Chu L-F. and Hsuch C-M. Bax-regulated mitochondrial-mediated apoptosis is responsible for the in vitro ischemia induced neuronal cell death of Sprague Dawley rat. Neuroscience Lett. 2005, 387, 22-27).
Thus, this stress inducer, serum deprivation, combined with monitoring changes in the mitochondrial membrane potential in a 96-well format allows for the establishment of an efficient high-throughput screen (HTS) in order to evaluate the ability of compounds to increase mitochondrial membrane potential in the presence of stress and preserve health of the cell. Exemplary procedures for conducting such high-throughput assay are provided below.
SK-N-SH human neuroblastoma cells obtained from American Type Culture Collection (Rockville, Md.) were maintained in the log phase of growth in Minimal Essential Media (MEM), 10% heat inactivated fetal calf serum and 100 units/mL antibiotic-antimycotic (AA). Cells were cultured and maintained in a humidified incubator at 37° C. under 5% CO2 and 95% air. Cells were trypsinized (0.25%) and subcultured every 3 days and used from 15-18 passages. All cell culture supplies were obtained from Invitrogen (Carlsbad, Calif.).
SK-N-SH cells were plated 2-3 days in advance at a concentration of 50,000 cells/well onto collagen coated black-walled 96 well plates (Becton-Dickinson, Bedford, Mass.) in a total volume of […]. On day of experimental treatment, the media containing serum was aspirated from each well and rinsed once with MEM/1% AA without serum. The cells then were incubated overnight in 100 μL of MEM/1% AA (no serum) with and without dimebolin or novel chemical entities overnight for ˜18 hours. The following day, JC-1 dye (5,5′,6,6′-tetrachloro-1,1′,3,3′-tetraethylbenzimidazolcarbocyanide) was diluted 1:10 into MEM media according to the JC-1 Mitochondrial Membrane Potential Assay Kit: (Cayman Chemical Company, Ann Arbor, Mich.) and then 10 μL of the JC-1 dye solution was added to each well. The plates were centrifuged for 5 minutes at 400×g at room temperature followed by 40 minute incubation at 37° C. The plates were washed twice with 200 μL of provided Assay Buffer followed an addition of 100 μL of Assay Buffer to each well. The plates were read with an excitation and emission of 560 nm and 595 nM for red fluorescence and with an excitation and emission of 485 nm and 535 nM for green fluorescence to determine the final JC-1 value taking the red to green fluorescence ratio. This assay is based on change in mitochondrial membrane potential (MMP) using this lipophilic cationic dye, JC-1, by monitoring the changes in the ratio of red to green fluorescence as the MMP depolarizes. This change in MMP reflects the health of the cell with healthy, viable cells have a high JC-1 ratio and high MMP whereas apoptotic, unhealthy cells have a low JC-1 ratio or low MMP.
For the ability of compounds to reverse the stress due to serum deprivation and increase the JC-1 ratio, the percent maximal intensity in JC-1 ratio was normalized to that induced by the peak value for 10 μM dimebolin and plotted against the compound concentration to calculate EC50 values and to control for plate-to-plate variability. Concentration-response data were analyzed using GraphPad Prism (San Diego, Calif.); the EC50 values were derived from a single curve fit to the mean data of n=2-3, in duplicates. […]

The EC50 is the concentration giving half of the maximal effect. `CN1CCC2CN(Cc3ccccc3)CCN2c2ccccc21` (stereo not drawn) [Example 49, 3-benzyl-7-methyl-1,2,3,4,4a,5,6,7-octahydropyrazino[1,2-a][1,5]benzodiazepine]: the EC50 was found to be 10.4 µM and the Emax stood at 128%.
The like results for `Oc1ccc(CN2Cc3ccccc3N3CCN(Cc4ccccc4)CC3C2)cc1` (stereo not drawn) [Example 50, 4-[(3-benzyl-1,2,3,4,4a,5-hexahydropyrazino[1,2-a][1,4]benzodiazepin-6(7H)-yl)methyl]phenol] were, in that order, 5.95 µM and 240%.
`O=C1CC2CN(Cc3ccccc3)CCN2c2ncccc2N1` (stereo not drawn) [Example 51, 9-benzyl-7,7a,8,9,10,11-hexahydropyrazino[1,2-d]pyrido[3,2-b][1,4]diazepin-6(5H)-one]: the EC50 was 8.83 µM and the Emax came out at 68%.
For the compound `c1ccc(CN2CCN3c4ncccc4NCCC3C2)cc1` (stereo not drawn) [Example 52, 9-benzyl-5,6,7,7a,8,9,10,11-octahydropyrazino[1,2-d]pyrido[3,2-b][1,4]diazepine], the EC50 stood at 5.97 µM and the Emax amounted to 100%.
The corresponding values for `O=C(Cc1ccc(Cl)cc1)N1CCC2CN(Cc3ccccc3)CCN2c2ncccc21` (stereo not drawn) [Example 53, 1-(9-benzyl-7,7a,8,9,10,11-hexahydropyrazino[1,2-d]pyrido[3,2-b][1,4]diazepin-5(6H)-yl)-2-(4-chlorophenyl)ethanone] are 9.88 µM and 210%.
As to `Clc1ccc(CCN2CCC3CN(Cc4ccccc4)CCN3c3ncccc32)cc1` (stereo not drawn) [Example 54, 9-benzyl-5-[2-(4-chlorophenyl)ethyl]-5,6,7,7a,8,9,10,11-octahydropyrazino[1,2-d]pyrido[3,2-b][1,4]diazepine], the EC50 is 3.59 µM and the Emax was found to be 177%.
Turning to `CN1CCC2CN(Cc3ccccc3)CCN2c2ncccc21` (stereo not drawn) [Example 55, 9-benzyl-5-methyl-5,6,7,7a,8,9,10,11-octahydropyrazino[1,2-d]pyrido[3,2-b][1,4]diazepine], the EC50 was 9.95 µM and the Emax was 99%.
The like results for `Fc1ccc(CN2CCN3c4ccccc4CN(Cc4ccc(Br)cc4)CC3C2)cc1` (stereo not drawn) [Example 56, 6-(4-bromobenzyl)-3-(4-fluorobenzyl)-1,2,3,4,4a,5,6,7-octahydropyrazino[1,2-a][1,4]benzodiazepine] were, in that order, 5.17 µM and 161%.
On to `CN1CCN2c3ccccc3CN(Cc3ccc(Br)cc3)CC2C1` (stereo not drawn) [Example 57, 6-(4-bromobenzyl)-3-methyl-1,2,3,4,4a,5,6,7-octahydropyrazino[1,2-a][1,4]benzodiazepine], for which the EC50 is 10.2 µM and the Emax turned out to be 167%.
In the case of `CC1(C)C(C(=O)N2CCC3CN(Cc4ccccc4)CCN3c3ncccc32)C1(C)C` (stereo not drawn) [Example 58, (9-benzyl-7,7a,8,9,10,11-hexahydropyrazino[1,2-d]pyrido[3,2-b][1,4]diazepin-5(6H)-yl)(2,2,3,3-tetramethylcyclopropyl)methanone], the EC50 amounted to 3.65 µM and the Emax was determined as 215%.
Turning to `CC1(C)C(CN2CCC3CN(Cc4ccccc4)CCN3c3ncccc32)C1(C)C` (stereo not drawn) [Example 59, 9-benzyl-5-[(2,2,3,3-tetramethylcyclopropyl)methyl]-5,6,7,7a,8,9,10,11-octahydropyrazino[1,2-d]pyrido[3,2-b][1,4]diazepine], the half-maximal effective concentration (EC50) was found to be 3.4 µM and the Emax turned out to be 306%.
The like results for `O=C(Cc1ccc(Cl)nc1)N1Cc2ccccc2N2CCN(Cc3ccccc3)CC2C1` (stereo not drawn) [Example 60, 1-(3-benzyl-1,2,3,4,4a,5-hexahydropyrazino[1,2-a][1,4]benzodiazepin-6(7H)-yl)-2-(6-chloropyridin-3-yl)ethanone] were, in that order, 4.14 µM and 224%.
On to `Clc1ccc(CCN2Cc3ccccc3N3CCN(Cc4ccccc4)CC3C2)cn1` (stereo not drawn) [Example 63, 3-benzyl-6-[2-(6-chloropyridin-3-yl)ethyl]-1,2,3,4,4a,5,6,7-octahydropyrazino[1,2-a][1,4]benzodiazepine], for which the EC50 was 1.95 µM and the Emax is 173%.
The like results for `Fc1ccc(CN2CCN3c4ncccc4N(CC4CC4)CCC3C2)cc1` (stereo not drawn) [Example 64, 5-(cyclopropylmethyl)-9-(4-fluorobenzyl)-5,6,7,7a,8,9,10,11-octahydropyrazino[1,2-d]pyrido[3,2-b][1,4]diazepine] were, in that order, 5.66 µM and 139%.
In the case of `Fc1ccc(CN2CCN3c4ncccc4N(CC4CCC4)CCC3C2)cc1` (stereo not drawn) [Example 65, 5-(cyclobutylmethyl)-9-(4-fluorobenzyl)-5,6,7,7a,8,9,10,11-octahydropyrazino[1,2-d]pyrido[3,2-b][1,4]diazepine], the EC50 is 4.59 µM and the Emax came to 133%.
The like results for `CC(C)(C)OC(=O)N1CCN2c3ccccc3CN(Cc3ccc(Br)cc3)CC2C1` (stereo not drawn) [Example 66, tert-butyl 6-(4-bromobenzyl)-1,2,4a,5,6,7-hexahydropyrazino[1,2-a][1,4]benzodiazepine-3(4H)-carboxylate] were, in that order, 4.84 µM and 192%.
`CC(C)(C)OC(=O)N1CCN2c3ccccc3CN(Cc3ccc(Br)cc3)C(=O)C2C1` (stereo not drawn) [Example 67, tert-butyl 6-(4-bromobenzyl)-5-oxo-1,2,4a,5,6,7-hexahydropyrazino[1,2-a][1,4]benzodiazepine-3(4H)-carboxylate]: the EC50 was 5.06 µM and the Emax was determined as 215%.
With `Fc1ccc(CN2CCN3c4ncccc4N(C[C@@H]4CCN4)CCC3C2)cc1` (stereo partly drawn) [Example 68, 5-[(2S)-azetidin-2-ylmethyl]-9-(4-fluorobenzyl)-5,6,7,7a,8,9,10,11-octahydropyrazino[1,2-d]pyrido[3,2-b][1,4]diazepine], the EC50 was 8.64 µM and the Emax came out at 157%.
On to `Fc1ccc(CN2CCN3c4ncccc4N(CC4CNC4)CCC3C2)cc1` (stereo not drawn) [Example 69, 5-(azetidin-3-ylmethyl)-9-(4-fluorobenzyl)-5,6,7,7a,8,9,10,11-octahydropyrazino[1,2-d]pyrido[3,2-b][1,4]diazepine], for which the EC50 was determined as 10.3 µM and the Emax was 154%.
The like results for `O=C1C2CNCCN2c2ccccc2CN1Cc1ccc(Br)cc1` (stereo not drawn) [Example 70, 6-(4-bromobenzyl)-2,3,4,4a,6,7-hexahydropyrazino[1,2-a][1,4]benzodiazepin-5(1H)-one] were, in that order, 9.61 µM and 156%.
With `Brc1ccc(CN2Cc3ccccc3N3CCNCC3C2)cc1` (stereo not drawn) [Example 71, 6-(4-bromobenzyl)-1,2,3,4,4a,5,6,7-octahydropyrazino[1,2-a][1,4]benzodiazepine], the EC50 was 7.85 µM and the Emax was 105%.
The like results for `O=C(C1CC1)N1CCC2CNCCN2c2ncccc21` (stereo not drawn) [Example 72, cyclopropyl(7,7a,8,9,10,11-hexahydropyrazino[1,2-d]pyrido[3,2-b][1,4]diazepin-5(6H)-yl)methanone] were, in that order, 13.3 µM and 98%.
As to `O=C1C2CN(Cc3ccc(F)cc3)CCN2c2ccccc2CN1Cc1ccc(Br)cc1` (stereo not drawn) [Example 73, 6-(4-bromobenzyl)-3-(4-fluorobenzyl)-2,3,4,4a,6,7-hexahydropyrazino[1,2-a][1,4]benzodiazepin-5(1H)-one], the EC50 was determined as 4.27 µM and the Emax came to 229%.
For the compound `O=C(c1cccnc1)N1CCN2c3ncccc3N(CC3CC3)CCC2C1` (stereo not drawn) [Example 74, [5-(cyclopropylmethyl)-6,7,7a,8,10,11-hexahydropyrazino[1,2-d]pyrido[3,2-b][1,4]diazepin-9(5H)-yl](pyridin-3-yl)methanone], the EC50 worked out at 7.82 µM and the Emax came to 109%.

Source of the values: patent US9133206B2, “Benzodiazepine and pyridodiazepine derivatives” (AbbVie Inc., priority 2010, dated 2015).
